# Measured values reported in patent US20240108722A1, “TUMOR-INFILTRATING LYMPHOCYTES WITH MEMBRANE BOUND INTERLEUKIN 15 AND USES THEREOF” (OBSIDIAN THERAPEUTICS, INC., priority 2021, published 2024).
# Tested on: regulated mbIL15 TILs
# Assay: ACZ regulation of IL15 expression and signaling, phospho-flow cytometry-based assay
# Type: cell-based, human
# Details: 18 hours
# Description: Pre-REP TILs were prepared similarly to the methods of Example 1-3 and 9, and unengineered and mbIL15 TIL generated accordingly as described in Examples 1-3 and 9. Engagement of the IL15 signaling pathway results in phosphorylation of signal transducers downstream, including the transcription factor protein STAT5 and ribosomal protein S6. […] Next, the regulated mbIL15 TILs were regulated for 18 hours in the presence of a range of concentrations of ACZ including 0.1, 1, 2.5, 5, 10, 25, 100 as well as vehicle control. The regulated mbIL15 TILs were then collected for staining and FACS analysis.
# Briefly, cells were stained using antibodies for CD3, CD4, CD8, IL15 and a Live/Dead marker. Then cells were fixed in 2% formaldehyde (BD Cytofix) and permeabilized using a methanol-based buffer (BD Phospho Perm III Buffer) before staining with antibodies specific for phosphorylated STAT5 (Biolegend) and S6 (Cell Signaling Technology). Cells were acquired on the BD Symphony and analyzed using FlowJo software.
# With increasing concentrations of ACZ expression of mbIL15 also increases, plateauing at around 10-25 μM of ACZ. FIG. 9A. […] FIGS. 9B-E and FIG. 10.
smiles,measurement,setting,value
"CC(=O)Nc1nnc(S(N)(=O)=O)s1 [ACZ, acetazolamide]",staining intensity of pSTAT5 and pS6,"0.1-100 μM ACZ, regulated mbIL15 TILs",increased with higher concentrations of ACZ
same,ACZ concentration at which mbIL15 expression plateaus,regulated mbIL15 TILs from four human donors,10 to 25 µM
